# Key:
# [1] = test system: production of CD69 by B lymphocytes in human whole blood; assay: CD69 Whole Blood Assay; type: cell-based; conditions: Lymphocyte; human whole blood activated with goat F(ab')2 anti-human IgM, 20 hours
# Source text: There is good evidence that B-cells play a key role in the pathogenesis of autoimmune and/or inflammatory disease. Protein-based therapeutics that deplete B cells such as Rituxan are effective against autoantibody-driven inflammatory diseases such as rheumatoid arthritis (Rastetter et al. (2004) Annu Rev Med 55:477). CD69 is the early activation marker in leukocytes including T cells, thymocytes, B cells, NK cells, neutrophils, and eosinophils. The CD69 human whole blood assay (Example 903) determines the ability of compounds to inhibit the production of CD69 by B lymphocytes in human whole blood activated by crosslinking surface IgM with goat F(ab′)2 anti-human IgM.
# Human blood is obtained from healthy volunteers, with the following restrictions: 1 week drug-free, non-smokers. Blood (approximately 20 mls to test 8 compounds) is collected by venipuncture into Vacutainer tubes with sodium heparin.
# Solutions of Formula I compounds at 1000 or 2000 μM in PBS (20×), are diluted by three-fold serial dilutions in 10% DMSO in PBS for a nine point dose-response curve. An aliquot of 5.5 μl of each compound is added in duplicate to a 2 ml 96-well plate; 5.5 μl of 10% DMSO in PBS is added as control and no-stimulus wells. Human whole blood—HWB (100 μl) is added to each well. After mixing the plates are incubated at 37° C., 5% CO2, 100% humidity for 30 minutes. Goat F(ab′)2 anti-human IgM (10 μl of a 500 μg/ml solution, 50 μg/ml final) is added to each well (except the no-stimulus wells) with mixing and the plates are incubated for an additional 20 hours. At the end of the 20 hour incubation, samples are incubated with fluorescent labeled antibodies for 30 minutes, at 37° C., 5% CO2, 100% humidity. Include induced control, unstained and single stains for compensation adjustments and initial voltage settings. Samples are then lysed with Pharmingen Lyse™ according to the manufacturer's instructions. Samples are then transferred to a 96 well plate suitable to be run on the AMS 96 well system on the BD Calibur FACS cell sorter instrument. Data acquired and Mean Fluorescence Intensity values were obtained using Cell Quest Software. Results are initially analyzed by FACS analysis software (Flow Jo). The IC50 values are calculated by ActivityBase™ using Xlfit™ version 3, equation 201.
# p110 delta = target: T1, p110 delta (Homo sapiens, UniProt O00329); assay: PI3K isoform inhibition assay (fluorescence polarization), p110 delta; type: biochemical; conditions: Ki apparent, Morrison equation; 25 μM ATP, 10 μM PIP2
# T1 construct: purchased Upstate Group, Millipore; Dundee, UK
# T1 sequence (O00329 whole entry, canonical isoform): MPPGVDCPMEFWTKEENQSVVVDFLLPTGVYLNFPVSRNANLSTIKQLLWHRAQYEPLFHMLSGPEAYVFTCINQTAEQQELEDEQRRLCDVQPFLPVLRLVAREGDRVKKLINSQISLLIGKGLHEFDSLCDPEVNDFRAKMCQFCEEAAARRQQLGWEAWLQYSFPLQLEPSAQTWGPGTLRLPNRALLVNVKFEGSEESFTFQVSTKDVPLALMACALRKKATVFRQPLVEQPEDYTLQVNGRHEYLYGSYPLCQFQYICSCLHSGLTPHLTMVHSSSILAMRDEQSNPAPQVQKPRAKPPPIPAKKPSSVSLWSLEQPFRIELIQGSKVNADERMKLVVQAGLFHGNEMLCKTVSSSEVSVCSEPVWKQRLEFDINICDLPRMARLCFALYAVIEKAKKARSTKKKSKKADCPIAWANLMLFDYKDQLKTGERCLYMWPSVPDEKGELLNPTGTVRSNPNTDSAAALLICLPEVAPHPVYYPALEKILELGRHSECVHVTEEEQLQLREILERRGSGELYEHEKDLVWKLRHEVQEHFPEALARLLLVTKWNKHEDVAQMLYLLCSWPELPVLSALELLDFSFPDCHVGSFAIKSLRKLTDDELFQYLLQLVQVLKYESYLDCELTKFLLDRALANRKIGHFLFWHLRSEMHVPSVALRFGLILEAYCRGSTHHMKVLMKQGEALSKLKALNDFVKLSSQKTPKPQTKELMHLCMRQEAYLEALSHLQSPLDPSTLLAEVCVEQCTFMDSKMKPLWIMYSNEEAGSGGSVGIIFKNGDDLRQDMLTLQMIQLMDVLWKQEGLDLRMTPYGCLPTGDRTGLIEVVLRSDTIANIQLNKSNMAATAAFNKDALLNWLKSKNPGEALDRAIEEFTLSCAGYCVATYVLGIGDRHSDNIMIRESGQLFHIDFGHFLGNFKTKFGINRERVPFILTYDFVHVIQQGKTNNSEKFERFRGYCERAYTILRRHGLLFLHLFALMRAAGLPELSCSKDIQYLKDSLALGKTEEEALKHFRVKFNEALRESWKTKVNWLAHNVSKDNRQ
# T1 sequence (P27986 whole entry partner, canonical isoform): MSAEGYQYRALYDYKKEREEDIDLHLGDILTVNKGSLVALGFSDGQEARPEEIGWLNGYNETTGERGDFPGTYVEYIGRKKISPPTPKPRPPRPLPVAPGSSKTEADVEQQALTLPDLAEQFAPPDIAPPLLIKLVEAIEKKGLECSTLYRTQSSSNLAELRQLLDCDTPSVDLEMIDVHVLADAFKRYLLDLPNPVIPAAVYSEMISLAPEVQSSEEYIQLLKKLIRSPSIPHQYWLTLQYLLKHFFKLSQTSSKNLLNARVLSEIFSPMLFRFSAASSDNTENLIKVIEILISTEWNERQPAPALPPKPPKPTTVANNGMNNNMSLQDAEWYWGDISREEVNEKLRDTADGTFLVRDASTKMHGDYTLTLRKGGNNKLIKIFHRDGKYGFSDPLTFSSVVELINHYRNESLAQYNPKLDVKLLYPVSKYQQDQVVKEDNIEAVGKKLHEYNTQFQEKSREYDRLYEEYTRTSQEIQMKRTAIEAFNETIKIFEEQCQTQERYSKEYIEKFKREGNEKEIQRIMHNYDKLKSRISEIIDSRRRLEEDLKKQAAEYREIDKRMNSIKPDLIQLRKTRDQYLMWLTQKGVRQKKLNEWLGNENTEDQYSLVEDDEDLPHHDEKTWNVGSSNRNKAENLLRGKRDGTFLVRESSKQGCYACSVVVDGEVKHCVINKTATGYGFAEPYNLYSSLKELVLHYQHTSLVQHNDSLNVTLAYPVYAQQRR
# Procedure: (§1) Determination of the activity of PI3 kinase activity of Formula I compounds is possible by a number of direct and indirect detection methods.
# (§2) PI3K enzymatic activity was assayed by measuring the amount of product phosphatidylinositol 3,4,5-phosphate (PIP3) formed from substrate 4,5 phosphatidylinositol 4,5-phosphate (PIP2) using a fluorescence polarization displacement assay. The decrease in fluorescence polarization of a fluorescent PIP3 probe is measured as it is displaced from a PIP3-binding protein GRP-1 detector by PI3K-catalyzed product. […] The kinase reactions were initiated by the addition of 40 ng/mL p110α/p85α, 300 ng/mL p110β/p85α, 40 ng/mL p110γ, or 40 ng/mL p110δ/p85α (Upstate Group, Millipore; Dundee, UK), and 10 μM PIP2 (Echelon Biosciences) to the wells. […] After 60 minutes of incubation at room temperature to allow equilibration of labeled and unlabeled PIP3 binding, the parallel and perpendicular components of the fluorescence emissions from each sample were measured at an excitation wavelength of 530 nm and an emission wavelength of 590 nm using an Envision fluorescent plate reader with a rhodamine filter (PerkinElmer Life and Analytical Sciences; Wellesley, Mass.). The assay is capable of detecting 0.1-2.0 μM PIP3 product. The Ki apparent values were obtained by fitting the dose-dependent inhibition data to the Morrison equation for tight-binding, competitive inhibitors. Reference: R. A. Copeland, Enzymes. “A Practical Introduction to Structure, Mechanism and Data Analysis”.
# The Formula I compound was serially diluted in 100% DMSO. The kinase reaction was incubated for 1 h at room temperature, and the reaction was terminated by the addition of PBS. IC50 values were subsequently determined using sigmoidal dose-response curve fit (variable slope). […]
# p110 alpha = target: T2, p110 alpha (Homo sapiens, UniProt P42336); assay: PI3K isoform inhibition assay (fluorescence polarization), p110 alpha; type: biochemical; conditions: delta/alpha selectivity ratio
# T2 construct: purchased Upstate Group, Millipore; Dundee, UK
# T2 sequence (P42336 whole entry, species assumed, canonical isoform): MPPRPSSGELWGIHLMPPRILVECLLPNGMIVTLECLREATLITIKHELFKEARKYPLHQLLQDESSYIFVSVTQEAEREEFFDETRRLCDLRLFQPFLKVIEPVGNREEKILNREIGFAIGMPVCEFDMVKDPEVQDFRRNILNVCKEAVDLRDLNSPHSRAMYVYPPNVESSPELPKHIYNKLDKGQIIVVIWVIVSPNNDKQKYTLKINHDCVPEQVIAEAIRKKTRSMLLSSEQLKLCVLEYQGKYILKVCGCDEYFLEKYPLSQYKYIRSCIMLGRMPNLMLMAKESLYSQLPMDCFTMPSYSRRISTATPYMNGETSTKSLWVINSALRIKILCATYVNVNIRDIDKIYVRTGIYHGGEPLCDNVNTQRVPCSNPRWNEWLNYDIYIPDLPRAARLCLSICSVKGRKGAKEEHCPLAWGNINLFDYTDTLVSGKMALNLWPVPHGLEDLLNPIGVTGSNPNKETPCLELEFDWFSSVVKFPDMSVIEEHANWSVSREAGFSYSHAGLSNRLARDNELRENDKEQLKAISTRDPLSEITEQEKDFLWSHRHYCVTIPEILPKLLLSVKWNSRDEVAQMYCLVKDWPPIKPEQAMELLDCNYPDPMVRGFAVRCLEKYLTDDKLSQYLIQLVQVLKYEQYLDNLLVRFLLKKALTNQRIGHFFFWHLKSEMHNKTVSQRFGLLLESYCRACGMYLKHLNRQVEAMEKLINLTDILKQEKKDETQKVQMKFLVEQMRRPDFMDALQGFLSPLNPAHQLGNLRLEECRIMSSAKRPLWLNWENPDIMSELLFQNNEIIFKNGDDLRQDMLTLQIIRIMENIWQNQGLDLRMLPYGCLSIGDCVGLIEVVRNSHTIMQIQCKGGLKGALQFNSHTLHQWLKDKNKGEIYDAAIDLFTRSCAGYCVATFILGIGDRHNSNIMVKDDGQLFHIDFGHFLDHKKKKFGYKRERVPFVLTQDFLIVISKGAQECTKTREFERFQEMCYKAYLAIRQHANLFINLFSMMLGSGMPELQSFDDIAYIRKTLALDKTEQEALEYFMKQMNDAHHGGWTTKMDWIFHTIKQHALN
# T2 sequence (P27986 whole entry partner, species assumed, canonical isoform): as the sequence (P27986 whole entry partner, canonical isoform) above
# Procedure: as §1, §2
# The same protocol may be used to establish Ki values for p110α (alpha) PI3K binding.
# The four Class I PI 3-kinases are cloned into baculovirus vectors as follows: […]
Compound,IC50 [1],Ki (p110 delta),Ki p110 alpha/ Ki p110 delta (p110 alpha)
"CCc1nc2ccccc2n1-c1nc(N2CCOCC2)c2nc(OC3CNC3)n(C)c2n1 [Compound 133, 4-(8-(azetidin-3-yloxy)-2-(2-ethyl-1H-benzo[d]imidazol-1-yl)-9-methyl-9H-purin-6-yl)morpholine]",10.8 nM,8.53 nM,27
"CCc1nc2ccccc2n1-c1nc(N2CCOCC2)c2nc(OC3CCN(C4CCOCC4)CC3)n(C)c2n1 [Compound 101, 4-(2-(2-ethyl-1H-benzo[d]imidazol-1-yl)-9-methyl-8-(1-(tetrahydro-2H-pyran-4-yl)piperidin-4-yloxy)-9H-purin-6-yl)morpholine]",35.4 nM,1.84 nM,78
"CC(C)c1nc2ccccc2n1-c1nc(N2CCOCC2)c2nc(OC3CN(C4CCS(=O)(=O)CC4)C3)n(C)c2n1 [Compound 103, 4-(2-(2-isopropyl-1H-benzo[d]imidazol-1-yl)-9-methyl-8-(1-(1,1-dioxo-tetrahydro-2H-thiopyran-4-yl)azetidin-3-yloxy)-9H-purin-6-yl)morpholine]",3 nM,0.464 nM,256
"CC(C)C(=O)N1CC(Oc2nc3c(N4CCOCC4)nc(-n4c(C(C)C)nc5ccccc54)nc3n2C)C1 [Compound 107, 1-(3-(2-(2-isopropyl-1H-benzo[d]imidazol-1-yl)-9-methyl-6-morpholino-9H-purin-8-yloxy)azetidin-1-yl)-2-methylpropan-1-one]",8.3 nM,0.38 nM,173
"Cn1c(OC2CCN(C3CCOCC3)CC2)nc2c(N3CCOCC3)nc(-c3c(F)ccc4[nH]ccc34)nc21 [Compound 125, 4-(2-(5-fluoro-1H-indol-4-yl)-9-methyl-8-(1-(tetrahydro-2H-pyran-4-yl)piperidin-4-yloxy)-9H-purin-6-yl)morpholine]",–,0.98 nM,485
"CC(C)C(=O)N1CC(Oc2nc3c(N4CCOCC4)nc(-n4c(N(C)C)nc5ccccc54)nc3n2C)C1 [Compound 131, 1-(3-(2-(2-(dimethylamino)-1H-benzo[d]imidazol-1-yl)-9-methyl-6-morpholino-9H-purin-8-yloxy)azetidin-1-yl)-2-methylpropan-1-one]",14.6 nM,3.65 nM,180
"CCc1nc2ccccc2n1-c1nc(N2CCOCC2)c2nc(OC3CN(C(=O)[C@H]4CC45CCC5)C3)n(C)c2n1 [Compound 152, (S)-(3-(2-(2-ethyl-1H-benzo [d]imidazol-1-yl)-9-methyl-6-morpholino-9H-purin-8-yloxy)azetidin-1-yl) (spiro[2.3]hexan-1-yl) methanone]",–,0.701 nM,107
"CCc1nc2ccccc2n1-c1nc(N2CCOCC2)c2nc(OC3CCN(C(=O)C(C)(C)O)CC3)n(C)c2n1 [Compound 112, 1-(4-(2-(2-ethyl-1H-benzo[d]imidazol-1-yl)-9-methyl-6-morpholino-9H-purin-8-yloxy)piperidin-1-yl)-2-hydroxy-2-methylpropan-1-one]",–,1.4 nM,122
"CCc1nc2ccccc2n1-c1nc(N2CCOCC2)c2nc(OC3CN(C(=O)[C@@H]4CC45CCC5)C3)n(C)c2n1 [Compound 153, (R)-(3-(2-(2-ethyl-1H-benzo [d]imidazol-l-yl)-9-methyl-6-morpholino-9H-purin-8-yloxy)azetidin-1-yl) (spiro[2.3]hexan-1-yl) methanone]",–,0.734 nM,159
"CCc1nc2ccccc2n1-c1nc(N2CCOCC2)c2nc(OC3CN(C(=O)C(C)(C)O)C3)n(C)c2n1 [Compound 115, 1-(3-(2-(2-ethyl-1H-benzo[d]imidazol-1-yl)-9-methyl-6-morpholino-9H-purin-8-yloxy)azetidin-1-yl)-2-hydroxy-2-methylpropan-1-one]",–,2.22 nM,70
"CN(C)c1nc2ccccc2n1-c1nc(N2CCOCC2)c2nc(OC3CN(C4CCS(=O)(=O)CC4)C3)n(C)c2n1 [Compound 137, N,N-dimethyl-1-(9-methyl-6-morpholino-8-(1-(1,1-dioxo-tetrahydro-2H-thiopyran-4-yl)azetidin-3-yloxy)-9H-purin-2-yl)-1H-benzo[d] imidazol-2-amine]",–,4.73 nM,121
"CCc1nc2ccccc2n1-c1nc(N2CCOCC2)c2nc(OC3CN(C4CCOCC4)C3)n(C)c2n1 [Compound 116, 4-(2-(2-ethyl-1H-benzo[d]imidazol-1-yl)-9-methyl-8-(1-(tetrahydro-2H-pyran-4-yl)azetidin-3-yloxy)-9H-purin-6-yl)morpholine]",–,1.28 nM,118
"Cn1c(OC2CN(C3CCS(=O)(=O)CC3)C2)nc2c(N3CCOCC3)nc(-n3c(C(C)(F)F)nc4ccccc43)nc21 [Compound 139, 4-(2-(2-(1,1-difluoroethyl)-1H-benzo[d]imidazol-1-yl)-9-methyl-8-(1-(1,1-dioxo-tetrahydro-2H-thiopyran-4-yl)azetidin-3-yloxy)-9H-purin-6-yl)morpholine]",–,1.42 nM,59
"CO[C@@H](C)c1nc2ccccc2n1-c1nc(N2CCOCC2)c2nc(OC3CN(C(=O)C(C)C)C3)n(C)c2n1 [Compound 141, (S)-1-(3-(2-(2-(1-methoxyethyl)-1H-benzo[d]imidazol-1-yl)-9-methyl-6-morpholino-9H-purin-8-yloxy)azetidin-1-yl)-2-methylpropan-1-one]",–,0.834 nM,54
"CC(C)c1nc2ccccc2n1-c1nc(N2CCOCC2)c2nc(OC3CN(C4COC4)C3)n(C)c2n1 [Compound 111, 4-(2-(2-isopropyl-1H-benzo[d]imidazol-1-yl)-9-methyl-8-(1-(oxetan-3-yl)azetidin-3-yloxy)-9H-purin-6-yl)morpholine]",–,1.64 nM,102
"CCc1nc2ccccc2n1-c1nc(N2CCOCC2)c2nc(OC3CN(C(=O)C4CC4)C3C)n(C)c2n1 (centres unmarked) [Compound 148, cyclopropyl(3-(2-(2-ethyl-1H-benzo[d]imidazol-1-yl)-9-methyl-6-morpholino-9H-purin-8-yloxy)-2-methylazetidin-1-yl)methanone]",–,0.34 nM,259
"CCc1nc2ccccc2n1-c1nc(N2CCOCC2)c2nc(OC3CN(C(=O)[C@H](C)OC)C3)n(C)c2n1 [Compound 120, (S)-1-(3-(2-(2-ethyl-1H-benzo[d]imidazol-1-yl)-9-methyl-6-morpholino-9H-purin-8-yloxy)azetidin-1-yl)-2-methoxypropan-1-one]",–,1.24 nM,93
"CCc1nc2ccccc2n1-c1nc(N2CCOCC2)c2nc(OC3CCN(C4CCS(=O)(=O)CC4)CC3)n(C)c2n1 [Compound 106, 4-(2-(2-ethyl-1H-benzo[d]imidazol-1-yl)-9-methyl-8-(1,1-dioxo-1-(tetrahydro-2H-thiopyran-4-yl)piperidin-4-yloxy)-9H-purin-6-yl)morpholine]",–,0.441 nM,73

# Reference: patent US8293736B2, “Purine compounds selective for PI3K P110 delta, and methods of use” (F. Hoffmann la Roche AG, priority 2010, dated 2012)
